Measured values reported in US7879566B2, “Methods for the identification of modulators of OSGPR114 or OSGPR78 activity, and their use in the treatment of disease” (OSI Pharmaceuticals, Inc., priority 2003, dated 2011).

How the values were obtained:
OSGPR78 = biological target: T1, OSGPR78 (Homo sapiens, UniProt P43657, I33V); assay: Yeast Fus1p-LacZ β-galactosidase reporter assay, OSGPR78-transformed yeast; type: cell-based; conditions: Galpha i and Galpha 12/13 family chimeras (13393, 15074, 13395)
T1 construct: expressed in transfected cells; host or cells: engineered yeast (GPA1 replaced by G-alpha chimeras, STE3 deleted; Fus1p-LacZ reporters)
T1 sequence (P43657 1-344 I33V): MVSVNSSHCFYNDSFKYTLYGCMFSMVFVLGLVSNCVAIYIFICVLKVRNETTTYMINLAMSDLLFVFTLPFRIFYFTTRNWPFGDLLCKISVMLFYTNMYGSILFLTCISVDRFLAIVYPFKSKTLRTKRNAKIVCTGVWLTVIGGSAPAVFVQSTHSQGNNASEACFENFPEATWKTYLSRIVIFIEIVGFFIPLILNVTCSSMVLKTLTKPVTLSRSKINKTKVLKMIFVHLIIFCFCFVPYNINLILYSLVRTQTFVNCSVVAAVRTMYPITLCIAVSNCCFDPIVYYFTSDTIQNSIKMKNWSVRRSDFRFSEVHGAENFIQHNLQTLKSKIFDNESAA
Excerpt: The yeast cell-based reporter assays have previously been described in the literature (e.g. see Miret J. J., et. al. (2002) J. Biol. Chem. 277:6881-6887; Campbell R. M., et. al. (1999) Bioorg Med. Chem. Lett. 9:2413-2418; King K., et. al. (1990) Science. 250:121-123); WO 99/14344; WO 00/12704; and U.S. Pat. No. 6,100,042). Briefly, yeast cells have been engineered such that the endogenous yeast G-alpha (GPA1) has been deleted and replaced with G-protein chimeras constructed using multiple techniques. Additionally the endogenous yeast alpha-cell GPCR, STE3 has been deleted to allow for a […] expression of a mammalian GPCR of choice. In the yeast, elements of the pheromone signaling transduction pathway, which are conserved in eukaryotic cells (for example, the mitogen-activated protein kinase pathway), drive the expression of Fus1. By placing β-galactosidase (LacZ) under the control of the Fus1 promoter (Fus1p), a system has been developed whereby receptor activation leads to an enzymatic read-out. Different yeast strains (e.g. FIG. 6) denote the presence of different G-alpha chimeras (see “yeast reporter assays” in Results section below for definitions).
Yeast cells are transformed by an adaptation of the Lithium acetate method described by Agatep et.al. (Agatep, R., et. al. (1998) Transformation of Saccharomyces cerevisiae by the lithium acetate/single-stranded carrier DNA/polyethylene glycol (LiAc/ss-DNA/PEG) protocol. Technical Tips Online, Trends Journals, Elsevier). Briefly, yeast cells are grown overnight on yeast tryptone plates (YT). Carrier single-stranded DNA (10 μg), 2 μg of each of two Fus1p-LacZ reporter plasmids (one with URA3 selection marker and one with TRP1), 2 μg of OSGPR114 or OSGPR78 in yeast expression vector (2p origin of replication) and a lithium acetate/polyethylene glycol/TE buffer is pipetted into an Epindorf tube. The yeast expression plasmid containing the receptor/no receptor control has a LEU2 marker. Yeast cells are inoculated into this mixture and the reaction proceeds at 30° C. for 60 minutes. The yeast cells are then heat-shocked at 42° C. for 15 minutes. The cells are then washed and spread on selection plates. The selection plates are synthetic defined yeast media minus LEU, URA and TRP (SD-LUT). After incubating at 30° C. for 2-3 days, colonies that grow on the selection plates are then tested in the LacZ assay.
In order to perform fluorometric enzyme assays for β-galactosidase, yeast cells were grown overnight in liquid SD-LUT media to an unsaturated concentration (i.e. the cells are still dividing and have not yet reached stationary phase). They are diluted in fresh media to an optimal assay concentration and 90 μL of yeast cells were added to 96-well black polystyrene plates (Costar). Compounds, dissolved in ethanol and diluted in a 1% BSA solution to 10× concentration, were added to the plates and the yeast are placed at 30° C. for 4 h. After 4 h, the substrate for the β-galactosidase is added to each well: The substrate may yield a fluorescent or calorimetric read-out upon the activity of the β-galactosidase. In these experiments, Fluorescein di(β-D-galactopyranoside) was used (FDG), a substrate for the enzyme that releases fluorescein, allowing a fluorometric read-out. 20 μL of 500 μM FDG was used. After incubation of the cells with the substrate for 30-60 mins, 20 μL of 1 M sodium carbonate is added to terminate the reaction and enhance the fluorescent signal. The plates were then read in a fluorometer at 485/535 nm. As an alternate read-out system, the yeast are also engineered with a Fus1p-HIS gene which means that activation of the receptor can also be measured through the growth of the yeast in a […] media.

HCT-8 cells = assay: LPA effect on apoptosis (Apo-One Caspase 3/7); type: cell-based, human
Method: The effect of LPA on cell proliferation (Cell TiterGlo assay, Promega) and induction of apoptosis (Apo-One Caspase 3/7 assay, Promega) was measured in the presence and absence of serum. Cell-titer Glo is an assay that quantitates ATP as a measurement of the number of viable cells in a culture. The assay utilizes a luciferase-based luminescent signal. The Apo-One assay utilizes a profluorescent caspase 3/7 consensus substrate to measure the activation of caspase in the sample. The experiments were conducted in serum-free media as it is known that serum contains high concentrations of LPA (of the order of 10-30 uM). Briefly, cells were plated in 96-well plates at a density of 20,000 cells/well. After 24 h the serum-containing media was removed from the cells and replaced with either serum-containing or serum-free media. After 24 h LPA, at concentrations from 1-100 μM was added to the cells. 24 h later the induction of apoptosis and the level of cellular proliferation was measured using the Cell titer-glo or Caspase 3/7 Apo-One assay kits commercially available from Promega.

Q: Which results are given for lysophosphatidic acid [LPA]?
A: response in yeast G-alpha chimera strains (OSGPR78): optimal for LPA response; apoptosis (HCT-8 cells; presence of 10% FCS): no statistically significant effects; apoptosis induced through serum starving (HCT-8 cells; serum free conditions, LPA 1-100 μM, 24 h): reversed apoptosis
